Legend:
[1] = target: Human immunodeficiency virus type 1 protease (Human immunodeficiency virus 1, UniProt Q72874)
Description: Inhibitory activity against HIV protease

[2] = test system: Human immunodeficiency virus; experiment: Antiviral activity against mutant HIV isolate Q-60C; format: functional; settings: Human immunodeficiency virus 1, Q-60C; read-out: CIC95
[3] = test system: Human immunodeficiency virus; experiment: Antiviral activity in MT4 human T lymphoid cells infected with wild type NL4-3 HIV; format: functional; settings: Human immunodeficiency virus 1, NL4-3, MT4; read-out: CIC95
[4] = test system: Human immunodeficiency virus; experiment: Antiviral activity against mutant HIV isolate V-18C; format: functional; settings: Human immunodeficiency virus 1, V-18C; read-out: CIC95
[5] = test system: Human immunodeficiency virus; experiment: Antiviral activity against mutant HIV isolate K-60C; format: functional; settings: Human immunodeficiency virus 1, K-60; read-out: CIC95
[6] = test system: Human immunodeficiency virus; experiment: Antiviral activity against 4X HIV strain; format: functional; settings: Human immunodeficiency virus 1, 4X; read-out: CIC95
[7] = Oral bioavailability in rat at 2 mg/kg, po; format: ADME, organism-based; settings: in vivo
[8] = Plasma clearance in rat at 2 mg/kg, po; format: ADME, organism-based; set-up: dose 2 mg/kg, route oral
[9] = target: Cytochrome P450 3A4 (Homo sapiens, UniProt P08684); experiment: Inhibitory activity against CYP3A4; format: ADME
[10] = target: Cytochrome P450 2C9 (Homo sapiens, UniProt P11712); experiment: Inhibitory activity against CYP2C9; format: ADME
[11] = Cmax in rat at 2 mg/kg, po; format: ADME, organism-based; set-up: dose 2 mg/kg, route oral; settings: in vivo
[12] = test system: Rattus norvegicus; experiment: AUC in rat at 2 mg/kg, po; format: ADME, organism-based, Plasma; set-up: dose 2 mg/kg, route oral; settings: in vivo
[13] = target: Cytochrome P450 2D6 (Homo sapiens, UniProt P10635); experiment: Inhibitory activity against CYP2D6; format: ADME
[14] = Half life in rat at 2 mg/kg, po; format: ADME, organism-based; set-up: dose 2 mg/kg, route oral; settings: in vivo
[15] = Half life in dog at 10 mg/kg, po; format: ADME, organism-based, Canis lupus familiaris; set-up: dose 10 mg/kg, route oral; settings: in vivo
[16] = Half life in rat at 10 mg/kg, po; format: ADME, organism-based; set-up: dose 10 mg/kg, route oral; settings: in vivo
[17] = Cmax in rat at 10 mg/kg, po; format: ADME, organism-based; set-up: dose 10 mg/kg, route oral; settings: in vivo
[18] = Oral bioavailability in rat at 10 mg/kg, po; format: ADME, organism-based; settings: in vivo
[19] = Oral bioavailability in dog at 10 mg/kg, po; format: ADME, organism-based, Canis lupus familiaris; settings: in vivo
[20] = Plasma clearance in dog at 10 mg/kg, po; format: ADME, organism-based, Canis lupus familiaris; set-up: dose 10 mg/kg, route oral
[21] = Plasma clearance in rat at 10 mg/kg, po; format: ADME, organism-based; set-up: dose 10 mg/kg, route oral
[22] = test system: Rattus norvegicus; experiment: AUC in rat at 10 mg/kg, po; format: ADME, organism-based, Plasma; set-up: dose 10 mg/kg, route oral; settings: in vivo
[23] = Cmax in dog at 10 mg/kg, po; format: ADME, organism-based, Canis lupus familiaris; set-up: dose 10 mg/kg, route oral; settings: in vivo
[24] = test system: Canis familiaris; experiment: AUC in dog at 10 mg/kg, po; format: ADME, organism-based, Canis lupus familiaris, Plasma; set-up: dose 10 mg/kg, route oral; settings: in vivo

Sequence of Cytochrome P450 2C9 (P11712 whole entry): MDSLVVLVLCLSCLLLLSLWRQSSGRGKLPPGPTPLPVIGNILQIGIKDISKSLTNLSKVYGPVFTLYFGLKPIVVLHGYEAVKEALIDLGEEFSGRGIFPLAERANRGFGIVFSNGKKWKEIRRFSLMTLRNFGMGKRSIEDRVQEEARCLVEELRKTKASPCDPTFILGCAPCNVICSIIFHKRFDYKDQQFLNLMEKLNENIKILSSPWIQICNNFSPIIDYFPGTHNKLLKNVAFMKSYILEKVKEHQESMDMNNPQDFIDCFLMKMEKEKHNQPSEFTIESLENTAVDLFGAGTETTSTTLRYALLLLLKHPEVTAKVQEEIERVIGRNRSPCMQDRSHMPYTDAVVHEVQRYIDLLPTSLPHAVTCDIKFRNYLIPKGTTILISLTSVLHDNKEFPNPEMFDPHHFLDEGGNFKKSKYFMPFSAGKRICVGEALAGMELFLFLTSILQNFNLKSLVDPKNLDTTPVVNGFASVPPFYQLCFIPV
Sequence of Cytochrome P450 3A4 (P08684 whole entry): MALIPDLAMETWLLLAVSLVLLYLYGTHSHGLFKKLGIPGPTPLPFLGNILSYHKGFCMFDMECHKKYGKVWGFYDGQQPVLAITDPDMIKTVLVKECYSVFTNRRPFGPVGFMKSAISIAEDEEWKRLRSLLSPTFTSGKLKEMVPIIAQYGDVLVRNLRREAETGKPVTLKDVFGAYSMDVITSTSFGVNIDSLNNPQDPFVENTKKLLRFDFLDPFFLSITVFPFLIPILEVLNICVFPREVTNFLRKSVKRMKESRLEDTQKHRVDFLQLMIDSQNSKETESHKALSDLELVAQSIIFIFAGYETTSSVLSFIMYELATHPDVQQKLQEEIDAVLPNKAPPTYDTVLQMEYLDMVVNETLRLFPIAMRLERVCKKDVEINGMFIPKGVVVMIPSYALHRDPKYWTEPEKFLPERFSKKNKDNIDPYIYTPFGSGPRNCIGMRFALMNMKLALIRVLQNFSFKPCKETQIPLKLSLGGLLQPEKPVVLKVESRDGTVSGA
Sequence of Cytochrome P450 2D6 (P10635 whole entry): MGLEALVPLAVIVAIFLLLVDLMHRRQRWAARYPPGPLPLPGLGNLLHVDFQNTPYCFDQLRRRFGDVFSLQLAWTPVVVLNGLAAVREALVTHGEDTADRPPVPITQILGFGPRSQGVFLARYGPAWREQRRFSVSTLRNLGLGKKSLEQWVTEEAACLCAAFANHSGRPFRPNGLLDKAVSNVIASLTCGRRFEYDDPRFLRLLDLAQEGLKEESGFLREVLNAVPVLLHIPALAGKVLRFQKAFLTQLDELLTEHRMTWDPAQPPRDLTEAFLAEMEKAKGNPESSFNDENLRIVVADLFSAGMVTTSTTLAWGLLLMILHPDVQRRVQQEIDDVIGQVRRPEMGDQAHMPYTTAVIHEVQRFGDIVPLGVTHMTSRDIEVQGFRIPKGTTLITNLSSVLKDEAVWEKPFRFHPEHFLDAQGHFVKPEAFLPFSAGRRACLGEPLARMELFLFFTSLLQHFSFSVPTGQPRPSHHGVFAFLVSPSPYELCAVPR

| SMILES | IC50 [1] [nM] | IC95 [2] [nM] | IC95 [3] [nM] | IC95 [4] [nM] | IC95 [5] [nM] | IC95 [6] [nM] | also measured |
| --- | --- | --- | --- | --- | --- | --- | --- |
| O=C(N[C@H]1c2ccccc2OC[C@H]1O)[C@H](Cc1cc2cnccc2s1)C[C@H](O)CN1CCN(Cc2csc(-c3ccc(C(F)(F)F)cc3)n2)C[C@H]1C(=O)NCC(F)(F)F | 0.07 | 93.8 | 26 | 375 | 31.3 | 125 | – |
| Cc1ccncc1-c1ccc(C[C@H](C[C@H](O)CN2CCN(Cc3csc(-c4ccc(F)cc4)n3)C[C@H]2C(=O)NCC(F)(F)F)C(=O)N[C@H]2c3ccccc3OC[C@H]2O)o1 | 0.11 | 125 | < 7.8 | 62.5 | 125 | 15.6 | – |
| O=C(N[C@H]1c2ccccc2OC[C@H]1O)[C@H](Cc1cc2cnccc2s1)C[C@H](O)CN1CCN(Cc2ccc(-c3ccc(Cl)cc3)o2)C[C@H]1C(=O)NCC(F)(F)F | 0.03 | 31.3 | 15.6 | 125 | < 7.8 | 15.6 | – |
| Cc1ccncc1-c1ccc(C[C@H](C[C@H](O)CN2CCN(Cc3ccc(-c4ccc(Cl)cc4)o3)C[C@H]2C(=O)NCC(F)(F)F)C(=O)N[C@H]2c3ccccc3OC[C@H]2O)o1 | 0.08 | 62.5 | 15.6 | 125 | < 7.8 | 31.3 | – |
| O=C(N[C@H]1c2ccccc2OC[C@H]1O)[C@H](Cc1cc2cnccc2s1)C[C@H](O)CN1CCN(Cc2ccc(-c3ccc(Cl)cc3)s2)C[C@H]1C(=O)NCC(F)(F)F | 0.05 | 31.3 | 15.6 | 125 | 31.3 | 15.6 | – |
| Cc1ccncc1-c1ccc(C[C@H](C[C@H](O)CN2CCN(Cc3ccc(-c4ccc(Cl)cc4)s3)C[C@H]2C(=O)NCC(F)(F)F)C(=O)N[C@H]2c3ccccc3OC[C@H]2O)o1 | 0.04 | 62.5 | < 7.8 | 62.5 | 125 | 15.6 | – |
| O=C(N[C@H]1c2ccccc2OC[C@H]1O)[C@H](Cc1cc2ccncc2o1)C[C@H](O)CN1CCN(Cc2ccc(-c3ccc(Cl)cc3)o2)C[C@H]1C(=O)NCC(F)(F)F | 0.05 | 15.6 | < 7.8 | 62.5 | < 7.8 | 31.3 | – |
| Cc1ccncc1-c1ccc(C[C@H](C[C@H](O)CN2CCN(C(C)(C)c3ncc(-c4ccc(Cl)cc4)s3)C[C@H]2C(=O)NCC(F)(F)F)C(=O)N[C@H]2c3ccccc3OC[C@H]2O)o1 | 0.03 | 31.3 | 15.6 | 250 | 15.6 | 31.3 | – |
| CC(C)(c1ncc(-c2ccc(Cl)cc2)o1)N1CCN(C[C@@H](O)C[C@@H](Cc2cc3cnccc3s2)C(=O)N[C@H]2c3ccccc3OC[C@H]2O)[C@H](C(=O)NCC(F)(F)F)C1 | 0.02 | < 7.8 | < 7.8 | < 7.8 | < 7.8 | < 7.8 | bioavailability [7]: 7.3%; CL/F [8]: 111 mL/min/kg; IC50 [9]: < 1000 nM; IC50 [10]: < 1000 nM; Cmax [11]: 52 nM; AUC [12]: 0.36 uMh; IC50 [13]: < 1000 nM; half-life [14]: 48 min |
| CC(C)(c1ncc(-c2ccc(Cl)cc2)o1)N1CCN(C[C@@H](O)C[C@@H](Cc2cc3ccncc3s2)C(=O)N[C@H]2c3ccccc3OC[C@H]2O)[C@H](C(=O)NCC(F)(F)F)C1 | < 0.02 | < 7.8 | < 7.8 | < 7.8 | < 7.8 | < 7.8 | – |
| CC(C)(c1ncc(-c2ccc(Cl)cc2)o1)N1CCN(C[C@@H](O)C[C@@H](Cc2cc3ccncc3o2)C(=O)N[C@H]2c3ccccc3OC[C@H]2O)[C@H](C(=O)NCC(F)(F)F)C1 | 0.02 | < 7.8 | < 7.8 | 31 | < 7.8 | < 7.8 | half-life [15]: 60 min; half-life [16]: 48 min; Cmax [17]: 180 nM; bioavailability [18]: 14%; bioavailability [19]: 42%; IC50 [9]: < 1000 nM; IC50 [10]: < 1000 nM; CL/F [20]: 23 mL/min/kg; IC50 [13]: < 1000 nM; CL/F [21]: 98 mL/min/kg; AUC [22]: 0.29 uMh; Cmax [23]: 2100 nM; AUC [24]: 0.39 uMh |
| CC(C)(c1ncc(-c2ccc(Cl)cc2)s1)N1CCN(C[C@@H](O)C[C@@H](Cc2cc3cnccc3s2)C(=O)N[C@H]2c3ccccc3OC[C@H]2O)[C@H](C(=O)NCC(F)(F)F)C1 | 0.04 | < 7.8 | < 7.8 | 31.3 | < 7.8 | < 7.8 | – |
| CC(C)(c1ncc(-c2ccc(Cl)cc2)o1)N1CCN(C[C@@H](O)C[C@@H](Cc2cc3c(Cl)cncc3s2)C(=O)N[C@H]2c3ccccc3OC[C@H]2O)[C@H](C(=O)NCC(F)(F)F)C1 | < 0.02 | < 7.8 | < 7.8 | 15.6 | < 7.8 | < 7.8 | – |
| Cc1ccncc1-c1ccc(C[C@H](C[C@H](O)CN2CCN(Cc3ncc(-c4ccc(Cl)cc4)o3)C[C@H]2C(=O)NCC(F)(F)F)C(=O)N[C@H]2c3ccccc3OC[C@H]2O)o1 | 0.03 | 62.5 | < 7.8 | 125 | 15.6 | 62.5 | – |
| CC(C)(C)NC(=O)[C@@H]1CN(Cc2cccnc2)CCN1C[C@@H](O)C[C@@H](Cc1ccccc1)C(=O)N[C@H]1c2ccccc2C[C@H]1O | – | > 1000 | 50 | > 1000 | > 1000 | 400 | – |
